The record followed here is ChEMBL document CHEMBL1153751, “Biologically active tetranorditerpenoids from the fungus Sclerotinia homoeocarpa causal agent of dollar spot in turfgrass” (J Nat Prod, 2009).

The source made the active and inactive calls. The rule behind the calls is not given here.

The test system of data set [1] is Lactuca sativa. The experiment in a line: Phytotoxicity against Lactuca sativa at 0.1 mg/ml. The format is functional, organism-based.
The test system of data set [2] is Plasmodium falciparum. Kind of data set: Antiplasmodial activity against chloroquine-sensitive Plasmodium falciparum D6 assessed as LDH activity at 4760 ng/ml after 72 hrs by malstat reagent method. The format is functional, organism-based.
A further data set deals with SK-MEL. The experiment in a line: Cytotoxicity against human SK-MEL cells at 10 ug/ml after 48 hrs by neutral red dye staining. Format: functional, cell-based.
Another data set relates to SK-OV-3. Kind of data set: Cytotoxicity against human SKOV3 cells at 10 ug/ml after 48 hrs by neutral red dye staining. The format is functional, cell-based.
Data set [3] relates to Agrostis stolonifera. Kind of data set: Phytotoxicity against Agrostis stolonifera at 0.1 mg/ml. Format: functional, organism-based.
The next data set deals with KB. The experiment in a line: Cytotoxicity against human KB cells at 10 ug/ml after 48 hrs by neutral red dye staining. The format is functional, cell-based.
The test system of data set [4] is Agrostis stolonifera. Kind of data set: Phytotoxicity against Agrostis stolonifera at 0.001 mg/ml. The format is functional, organism-based.
The test system of data set [5] is Lactuca sativa. Kind of data set: Phytotoxicity against Lactuca sativa at 0.001 mg/ml. Format: functional, organism-based.
The subject of data set [6] is Agrostis stolonifera. Kind of data set: Phytotoxicity against Agrostis stolonifera at 1 mg/ml. The format is functional, organism-based.
The test system of the next data set is BT-549. Kind of data set: Cytotoxicity against human BT549 cells at 10 ug/ml after 48 hrs by neutral red dye staining. Format: functional, cell-based.
A further data set has as its system Vero. The experiment in a line: Cytotoxicity against african green monkey Vero cells at 4760 ng/ml after 48 hrs by neutral red dye staining. The settings on record: Chlorocebus sabaeus. Format: cell-based.
The subject of data set [7] is Lactuca sativa. Kind of data set: Phytotoxicity against Lactuca sativa at 0.01 mg/ml. Format: functional, organism-based.
Data set [8] deals with Agrostis stolonifera. The experiment in a line: Phytotoxicity against Agrostis stolonifera at 0.01 mg/ml. The format is functional, organism-based.
In data set [9] the test system is Plasmodium falciparum. The experiment in a line: Antiplasmodial activity against chloroquine-resistant Plasmodium falciparum W2 assessed as LDH activity at 4760 ng/ml after 72 hrs by malstat reagent method. The format is functional, organism-based.
The nature of data set [10]: Cytotoxicity against pig LLC-PK11 cells at 10 ug/ml after 48 hrs by neutral red dye staining. The format is functional, cell-based, Sus scrofa.

`C=C1C(O)CC2[C@](C)(CCC[C@]2(C)C(=O)O)C1CC(=O)O` (stereo not given in full): the outcome in the data set with Lactuca sativa [1], with Agrostis stolonifera [3], in the data set with Agrostis stolonifera [4], in the data set on Lactuca sativa [5], with Agrostis stolonifera [6] and in the data set on Lactuca sativa [7] was inactive. Also, the result in the data set with Agrostis stolonifera [8] was inactive. The inhibition result with Plasmodium falciparum [2], in the data set on SK-MEL, in the data set with SK-OV-3, in the data set with KB, in the data set with BT-549 and in the data set with Plasmodium falciparum [9] was “inactive” each time. Also, in the data set on Vero, the “inhibition (INH)” value was “Not Active”. Moreover, the “Cytotoxicity at 10 ug/ml” value in data set [10] was “Not Active”.
